Source: ChEMBL document CHEMBL3885861, “Open TG-GATES”

Species: Rattus norvegicus
Assay: Open TG-GATES - Regimen: Single
Format: toxicity, organism-based, Sprague-Dawley
Set-up: regimen Single, gender Male, age 6 weeks
Conditions: in vivo, po, 0 mg/kg, route gavage, dose level Control; for Bas / Eos / Fbg / Hb / Ht / Lym / MCH / MCHC / Mono / Neu / PT / Plat / RBC / Ret / WBC: tissue Blood; for KIDNEY_L / KIDNEY_R / KIDNEY_TOTAL: tissue Kidney; for LIVER: tissue Liver; for ALP / ALT / AST / BUN / CRE / Ca / DBIL / IP / K / LDH / Na / PL / RALB / TBIL / TC / TG / TP / gamma-GTP: tissue Plasma

## CCC(C)(C)C(=O)O[C@H]1C[C@@H](C)C=C2C=C[C@H](C)[C@H](CC[C@@H]3C[C@@H](O)CC(=O)O3)[C@H]21 [SIMVASTATIN]
3 h
  TERMINAL_BW: 203.4 g
  Bas: 0%
  Eos: 1%
  Fbg: 216.8 mg/dL
  Hb: 12.9 g/dL
  Ht: 39.1%
  Lym: 83.6%
  MCH: 21.5 pg
  MCHC: 32.8%
  Mono: 6%
  Neu: 9.6%
  PT: 11 s
  Plat: 101.5 x10_4/uL
  RBC: 596.2 x10_4/ul
  Ret: 7.8%
  WBC: 114.1 x10_2/uL
  KIDNEY_L: 0.9 g
  KIDNEY_R: 1 g
  KIDNEY_TOTAL: 1.9 g
  LIVER: 9.7 g
  ALP: 839.8 IU/L
  ALT: 35.4 IU/L
  AST: 61.6 IU/L
  BUN: 14.4 mg/dL
  CRE: 0.6 mg/dL
  Ca: 11 mg/dL
  DBIL: 0.02 mg/dL
  IP: 9.1 mg/dL
  K: 4.4 meq/L
  LDH: 82.2 IU/L
  Na: 138.8 meq/L
  PL: 147.4 mg/dL
  RALB: 3.5 g/dL
  TBIL: 0.4 mg/dL
  TC: 83.8 mg/dL
  TG: 63.6 mg/dL
  TP: 5.6 g/dL
  gamma-GTP: 1.6 IU/L
6 h
  TERMINAL_BW: 199.1 g
  Bas: 0%
  Eos: 1%
  Fbg: 208.2 mg/dL
  Hb: 13 g/dL
  Ht: 39.5%
  Lym: 79.8%
  MCH: 21.8 pg
  MCHC: 32.8%
  Mono: 6.2%
  Neu: 13%
  PT: 11.8 s
  Plat: 111.5 x10_4/uL
  RBC: 597.2 x10_4/ul
  Ret: 9.2%
  WBC: 109.4 x10_2/uL
  KIDNEY_L: 0.9 g
  KIDNEY_R: 0.9 g
  KIDNEY_TOTAL: 1.7 g
  LIVER: 8.5 g
  ALP: 648 IU/L
  ALT: 29 IU/L
  AST: 60.4 IU/L
  CRE: 0.5 mg/dL
  Ca: 10.8 mg/dL
  DBIL: 0.046 mg/dL
  IP: 9.4 mg/dL
  K: 4.5 meq/L
  LDH: 77 IU/L
  Na: 137.8 meq/L
  PL: 120.4 mg/dL
  RALB: 3.6 g/dL
  TBIL: 0.4 mg/dL
  TC: 70.6 mg/dL
  TG: 47.8 mg/dL
  TP: 5.5 g/dL
  gamma-GTP: 1 IU/L
9 h
  TERMINAL_BW: 197.5 g
  Bas: 0%
  Eos: 1%
  Fbg: 215.2 mg/dL
  Hb: 13.2 g/dL
  Ht: 40.2%
  Lym: 85.6%
  MCHC: 32.9%
  Mono: 5.4%
  Neu: 8.2%
  PT: 11.7 s
  Plat: 114.5 x10_4/uL
  RBC: 605.4 x10_4/ul
  Ret: 10.2%
  WBC: 96.4 x10_2/uL
  KIDNEY_L: 0.9 g
  KIDNEY_R: 0.9 g
  KIDNEY_TOTAL: 1.8 g
  LIVER: 8.4 g
  ALP: 810.4 IU/L
  ALT: 29.2 IU/L
  AST: 58.4 IU/L
  BUN: 12.2 mg/dL
  CRE: 0.6 mg/dL
  Ca: 10.9 mg/dL
  DBIL: 0.04 mg/dL
  IP: 10.9 mg/dL
  K: 4.6 meq/L
  LDH: 68.2 IU/L
  Na: 137.6 meq/L
  PL: 110.8 mg/dL
  RALB: 3.7 g/dL
  TBIL: 0.4 mg/dL
  TC: 61.8 mg/dL
  TG: 34.2 mg/dL
  TP: 5.2 g/dL
  gamma-GTP: 1.8 IU/L
24 h
  TERMINAL_BW: 215.6 g
  Bas: 0%
  Eos: 1%
  Fbg: 222.6 mg/dL
  Hb: 13 g/dL
  Ht: 40.1%
  Lym: 82.8%
  MCHC: 32.5%
  Mono: 8.2%
  Neu: 8.4%
  Plat: 113.8 x10_4/uL
  RBC: 614 x10_4/ul
  Ret: 9.5%
  KIDNEY_L: 1 g
  KIDNEY_R: 1 g
  KIDNEY_TOTAL: 2 g
  ALP: 887.6 IU/L
  ALT: 38.8 IU/L
  AST: 65 IU/L
  BUN: 18.6 mg/dL
  CRE: 0.6 mg/dL
  Ca: 10.8 mg/dL
  DBIL: 0.05 mg/dL
  IP: 8 mg/dL
  K: 4.6 meq/L
  LDH: 97.8 IU/L
  Na: 139.4 meq/L
  PL: 144.8 mg/dL
  RALB: 3.7 g/dL
  TBIL: 0.4 mg/dL
  TC: 79.6 mg/dL
